Source: patent US12594276B2, “Inhibitors of human immunodeficiency virus replication” (ViiV Healthcare UK (No.5) Limited, priority 2024, dated 2026)

Tests used:
[1] = test system: recombinant NL4-3 virus (nef section replaced with Renilla luciferase gene) in MT-2 cells; assay: HIV cell culture assay (antiviral activity, luciferase readout); format: cell-based; details: Renilla, NL43, MT-2 cells infected for 4-5 days with recombinant NL4-3 Renilla luciferase virus
In short: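 EC50 was derived by median-effect fitting of Renilla luciferase signal from MT-2 cells. These cells were infected for 4–5 days with NL4-3 reporter virus (nef partly replaced by luciferase; made in 293T cells) in the presence of serially diluted compound. Activity was quantified with a live-cell luciferase substrate.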

[2] = Compound cytotoxicity, XTT-based colorimetric assay; format: cell-based; details: human; uninfected MT2 cells, day 4, XTT; read-out: CC50
In short: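 Cells seeded as for the antiviral assay but left uninfected (MT2). Compound exposure continued to day 4. XTT reagent added and colour read. CC50 calculated.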

SMILES | EC50 [1] | CC50 at 4 days [2]
Cc1cc(C2CCC(F)(F)CC2)nc2nc([C@H](Cc3cc(F)cc(F)c3)NC(=O)Cn3nc(C4CC4)c4c3C(F)(F)[C@@H]3C[C@H]43)n(-c3ccc(Cl)c4c(NS(C)(=O)=O)nn(CCN5CCOCC5)c34)c(=O)c12 (atropisomer, axis not shown; (P)) [Example 112, N-[(1S)-1-[(3P)-3-{4-chloro-3-methanesulfonamido-1-[2-(morpholin-4-yl)ethyl]-1H-indazol-7-yl}-7-(4,4-difluorocyclohexyl)-5-methyl-4-oxo-3H,4H-pyrido[2,3-d]pyrimidin-2-yl]-2-(3,5-difluorophenyl)ethyl]-2-[(2S,4R)-9-cyclopropyl-5,5-difluoro-7,8-diazatricyclo[4.3.0.0^2,^4]nona-1(6),8-dien-7-yl]acetamide] | 0.013 nM | > 50 nM
Cc1cc(C2CCC(F)(F)CC2)nc2nc([C@H](Cc3cc(F)cc(F)c3)NC(=O)Cn3nc(C4CC4)c4c3C[C@@H]3C[C@H]43)n(-c3ccc(Cl)c4c(NS(C)(=O)=O)nn(CCN5CCOCC5)c34)c(=O)c12 (atropisomer, axis not shown; (P)) [Example 114, N-[(1S)-1-[(3P)-3-{4-chloro-3-methanesulfonamido-1-[2-(morpholin-4-yl)ethyl]-1H-indazol-7-yl}-7-(4,4-difluorocyclohexyl)-5-methyl-4-oxo-3H,4H-pyrido[2,3-d]pyrimidin-2-yl]-2-(3,5-difluorophenyl)ethyl]-2-[(2S,4S)-9-cyclopropyl-7,8-diazatricyclo[4.3.0.0^2,^4]nona-1(6),8-dien-7-yl]acetamide] | 0.013 nM | > 50 nM
Cc1cc(C2CCC(F)(F)CC2)nc2nc([C@H](Cc3cc(F)cc(F)c3)NC(=O)Cn3nc(C(F)(F)F)c4c3C[C@@H]3C[C@H]43)n(-c3ccc(Cl)c4c(NS(C)(=O)=O)nn(CCN5CCOCC5)c34)c(=O)c12 (atropisomer, axis not shown; (P)) [Example 115, N-[(1S)-1-[(3P)-3-{4-chloro-3-methanesulfonamido-1-[2-(morpholin-4-yl)ethyl]-1H-indazol-7-yl}-7-(4,4-difluorocyclohexyl)-5-methyl-4-oxo-3H,4H-pyrido[2,3-d]pyrimidin-2-yl]-2-(3,5-difluorophenyl)ethyl]-2-[(2S,4S)-9-(trifluoromethyl)-7,8-diazatricyclo[4.3.0.0^2,^4]nona-1(6),8-dien-7-yl]acetamide] | 0.016 nM | > 50 nM
Cc1cc(C2CCC(F)(F)CC2)nc2nc([C@H](Cc3cc(F)cc(F)c3)NC(=O)Cn3nc(C(F)(F)F)c4c3C(F)(F)[C@@H]3C[C@H]43)n(-c3ccc(Cl)c4c(NS(C)(=O)=O)nn(CCN5CCOCC5)c34)c(=O)c12 (atropisomer, axis not shown; (P)) [Example 116, N-[(1S)-1-[(3P)-3-{4-chloro-3-methanesulfonamido-1-[2-(morpholin-4-yl)ethyl]-1H-indazol-7-yl}-7-(4,4-difluorocyclohexyl)-5-methyl-4-oxo-3H,4H-pyrido[2,3-d]pyrimidin-2-yl]-2-(3,5-difluorophenyl)ethyl]-2-[(2S,4R)-5,5-difluoro-9-(trifluoromethyl)-7,8-diazatricyclo[4.3.0.0^2,^4]nona-1(6),8-dien-7-yl]acetamide] | 0.012 nM | > 50 nM
Cc1cc(C2CCC(F)(F)CC2)nc2nc([C@H](Cc3cc(F)cc(F)c3)NC(=O)Cn3nc(C(F)(F)F)c4c3C(F)(F)[C@@H]3C[C@H]43)n(-c3ccc(Cl)c4c(NS(C)(=O)=O)nn(CCCN5CCOCC5)c34)c(=O)c12 (atropisomer, axis not shown; (P)) [Example 121, N-[(1S)-1-[(3P)-3-{4-chloro-3-methanesulfonamido-1-[3-(morpholin-4-yl)propyl]-1H-indazol-7-yl}-7-(4,4-difluorocyclohexyl)-5-methyl-4-oxo-3H,4H-pyrido[2,3-d]pyrimidin-2-yl]-2-(3,5-difluorophenyl)ethyl]-2-[(2S,4R)-5,5-difluoro-9-(trifluoromethyl)-7,8-diazatricyclo[4.3.0.0^2,^4]nona-1(6),8-dien-7-yl]acetamide] | 0.027 nM | > 50 nM
Cc1cc(C2CCC(F)(F)CC2)nc2nc([C@H](Cc3cc(F)cc(F)c3)NC(=O)Cn3nc(C(F)F)c4c3C(F)(F)[C@@H]3C[C@H]43)n(-c3ccc(Cl)c4c(NS(C)(=O)=O)nn(CCN5CCC(F)(F)CC5)c34)c(=O)c12 (atropisomer, axis not shown; (P)) [Example 128, N-[(1S)-1-[(3P)-3-{4-chloro-1-[2-(4,4-difluoropiperidin-1-yl)ethyl]-3-methanesulfonamido-1H-indazol-7-yl}-7-(4,4-difluorocyclohexyl)-5-methyl-4-oxo-3H,4H-pyrido[2,3-d]pyrimidin-2-yl]-2-(3,5-difluorophenyl)ethyl]-2-[(2S,4R)-9-(difluoromethyl)-5,5-difluoro-7,8-diazatricyclo[4.3.0.0^2,^4]nona-1(6),8-dien-7-yl]acetamide] | 0.013 nM | > 50 nM
Cc1cc(C2CCC(F)(F)CC2)nc2nc([C@H](Cc3cc(F)cc(F)c3)NC(=O)Cn3nc(C(F)F)c4c3C(F)(F)[C@@H]3C[C@H]43)n(-c3ccc(Cl)c4c(NS(C)(=O)=O)nn(CCOC(C)(C)C)c34)c(=O)c12 (atropisomer, axis not shown; (P)) [Example 129, N-[(1S)-1-[(3P)-3-{1-[2-(tert-butoxy)ethyl]-4-chloro-3-methanesulfonamido-1H-indazol-7-yl}-7-(4,4-difluorocyclohexyl)-5-methyl-4-oxo-3H,4H-pyrido[2,3-d]pyrimidin-2-yl]-2-(3,5-difluorophenyl)ethyl]-2-[(2S,4R)-9-(difluoromethyl)-5,5-difluoro-7,8-diazatricyclo[4.3.0.0^2,^4]nona-1(6),8-dien-7-yl]acetamide] | 0.024 nM | > 50 nM
CS(=O)(=O)Nc1nn(CCN2CCC(F)(F)CC2)c2c(-n3c([C@H](Cc4cc(F)cc(F)c4)NC(=O)Cn4nc(C(F)F)c5c4C(F)(F)[C@@H]4C[C@H]54)nc4nc(C5CCC(F)(F)CC5)ccc4c3=O)ccc(Cl)c12 (atropisomer, axis not shown; (P)) [Example 130, N-[(1S)-1-[(3P)-3-{4-chloro-1-[2-(4,4-difluoropiperidin-1-yl)ethyl]-3-methanesulfonamido-1H-indazol-7-yl}-7-(4,4-difluorocyclohexyl)-4-oxo-3H,4H-pyrido[2,3-d]pyrimidin-2-yl]-2-(3,5-difluorophenyl)ethyl]-2-[(2S,4R)-9-(difluoromethyl)-5,5-difluoro-7,8-diazatricyclo[4.3.0.0^2,^4]nona-1(6),8-dien-7-yl]acetamide] | 0.013 nM | > 50 nM
COCCNc1cc(C2CCC(F)(F)CC2)nc2nc([C@H](Cc3cc(F)cc(F)c3)NC(=O)Cn3nc(C(F)F)c4c3C(F)(F)[C@@H]3C[C@H]43)n(-c3ccc(Cl)c4c(NS(C)(=O)=O)nn(CCOC)c34)c(=O)c12 (atropisomer, axis not shown; (P)) [Example 134, N-[(1S)-1-[(3P)-3-[4-chloro-3-methanesulfonamido-1-(2-methoxyethyl)-1H-indazol-7-yl]-7-(4,4-difluorocyclohexyl)-5-[(2-methoxyethyl)amino]-4-oxo-3H,4H-pyrido[2,3-d]pyrimidin-2-yl]-2-(3,5-difluorophenyl)ethyl]-2-[(2S,4R)-9-(difluoromethyl)-5,5-difluoro-7,8-diazatricyclo[4.3.0.0^2,^4]nona-1(6),8-dien-7-yl]acetamide] | 0.022 nM | > 50 nM
COCCCn1nc(NS(C)(=O)=O)c2c(Cl)ccc(-n3c([C@H](Cc4cc(F)cc(F)c4)NC(=O)Cn4nc(C(F)F)c5c4C(F)(F)[C@@H]4C[C@H]54)nc4nc(C5CCC(F)(F)CC5)cc(NCCOC)c4c3=O)c21 (atropisomer, axis not shown; (P)) [Example 135, N-[(1S)-1-[(3P)-3-[4-chloro-3-methanesulfonamido-1-(3-methoxypropyl)-1H-indazol-7-yl]-7-(4,4-difluorocyclohexyl)-5-[(2-methoxyethyl)amino]-4-oxo-3H,4H-pyrido[2,3-d]pyrimidin-2-yl]-2-(3,5-difluorophenyl)ethyl]-2-[(2S,4R)-9-(difluoromethyl)-5,5-difluoro-7,8-diazatricyclo[4.3.0.0^2,4]nona-1(6),8-dien-7-yl]acetamide] | 0.013 nM | > 50 nM
CS(=O)(=O)Nc1nn(CCN2CCC(F)(F)CC2)c2c(-n3c([C@H](Cc4cc(F)cc(F)c4)NC(=O)Cn4nc(C(F)F)c5c4C(F)(F)[C@@H]4C[C@H]54)nc4nc(C5CCC(F)(F)CC5)cc(C(F)F)c4c3=O)ccc(Cl)c12 (atropisomer, axis not shown; (P)) [Example 149, N-[(1S)-1-[(3P)-3-{4-chloro-1-[2-(4,4-difluoropiperidin-1-yl)ethyl]-3-methanesulfonamido-1H-indazol-7-yl}-7-(4,4-difluorocyclohexyl)-5-(difluoromethyl)-4-oxo-3H,4H-pyrido[2,3-d]pyrimidin-2-yl]-2-(3,5-difluorophenyl)ethyl]-2-[(2S,4R)-9-(difluoromethyl)-5,5-difluoro-7,8-diazatricyclo[4.3.0.0^2,^4]nona-1(6),8-dien-7-yl]acetamide] | 0.018 nM | > 50 nM
CCOCCn1nc(NS(C)(=O)=O)c2c(Cl)ccc(-n3c([C@H](Cc4cc(F)cc(F)c4)NC(=O)Cn4nc(C(F)F)c5c4C(F)(F)[C@@H]4C[C@H]54)nc4nc(C5CCC(F)(F)CC5)cc(C(F)F)c4c3=O)c21 (atropisomer, axis not shown; (P)) [Example 150, N-[(1S)-1-[(3P)-3-[4-chloro-1-(2-ethoxyethyl)-3-methanesulfonamido-1H-indazol-7-yl]-7-(4,4-difluorocyclohexyl)-5-(difluoromethyl)-4-oxo-3H,4H-pyrido[2,3-d]pyrimidin-2-yl]-2-(3,5-difluorophenyl)ethyl]-2-[(2S,4R)-9-(difluoromethyl)-5,5-difluoro-7,8-diazatricyclo[4.3.0.0^2,^4]nona-1(6),8-dien-7-yl]acetamide] | 0.017 nM | > 50 nM
